Where two headings read alike, the source gives them in different places.
Biological target: T1, Maillard product of lactose and albumin from chicken egg (band at ~50-55 kDa) (Gallus gallus, UniProt P01012)
T1 sequence (P01012 1-386): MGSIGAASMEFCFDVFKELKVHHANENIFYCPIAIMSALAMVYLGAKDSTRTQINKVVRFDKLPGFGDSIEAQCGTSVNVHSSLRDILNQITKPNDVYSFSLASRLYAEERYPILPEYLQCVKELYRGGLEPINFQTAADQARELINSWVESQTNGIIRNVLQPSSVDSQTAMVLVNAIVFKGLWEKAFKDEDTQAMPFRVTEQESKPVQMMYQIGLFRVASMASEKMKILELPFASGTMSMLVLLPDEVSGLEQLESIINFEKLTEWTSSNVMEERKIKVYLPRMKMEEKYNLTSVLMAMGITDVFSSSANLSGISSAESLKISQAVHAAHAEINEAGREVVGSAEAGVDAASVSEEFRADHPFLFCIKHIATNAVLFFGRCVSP
Conditions: complex 0.2 mM, Maillard product 3 g/l, 60° C., pH 9.5
Protocol: A mixture of lactose and albumin from chicken egg, approx. 45 000 g/mol, in a weight ratio of 3:1 was dissolved in de-salinated water and stirred for 30 min at room temperature. The resulting solution was lyophilized using a commercial lab lyophilizer (Christ; Gamma 1-20) and homogenized. 0.5 g of the resulting powder was heated to 140° C. for 20 min and was then allowed to cool to room temperature. […] An aqueous solution of the Maillard product (3 g/l) was incubated at 60° C. at pH 9.5 (hydrogen carbonate/carbonate buffer) with the complexes of examples 1 and 2 at the concentrations and for amounts of time given in table 1. The progress of protein degradation was followed by SDS page gel analysis. The intensity value of the band at ˜50-55 kDa at time t=0, that is before the start of incubation, is set to 1.

SMILES: O=C1CN2CCN3CC(=O)[O][Zr]([O]1)([O]c1ccccc1C2)[O]c1ccccc1C3 [Complex K1]
- Intensity of the band at ~50-55 kDa (t = 0 h (before start of incubation, set to 1)): 1
- Intensity of the band at ~50-55 kDa (t = 1 h, relative to t=0 set to 1): 0.91
- Intensity of the band at ~50-55 kDa (t = 2 h, relative to t=0 set to 1): 0.83

From patent US20210087496A1, “Non-Enzymatic Removal Of Proteinaceous Soils” (Henkel AG & Co. KGaA, priority 2019, published 2021)
